The values below come from patent US20110207775A1, “AGENT THAT MODULATES PHYSIOLOGICAL CONDITION OF PESTS, INVOLVED IN INSECT VESICLE-FUSING ATPASE ACTIVITY” (SUMITOMO CHEMICAL COMPANY, LIMITED, priority 2006, published 2011).

Assay [1] deals with cotton aphid vesicle-fusing ATPase (Aphis gossypii, UniProt A0A9P0IYS6). The experiment in a line: Inhibition of cotton aphid vesicle-fusing ATPase activity (Kinase-Glo luminescent assay of ATP not hydrolyzed). It counts as biochemical. To be noted: for IC50: 8 concentrations from 100 μM to 0.03 μM, calculated with XLfit, read-out: Activity of inhibiting vesicle-fusing ATPase activity (IC50). Here is the method:
Selection of a compound which modulates a vesicle-fusing ATPase activity was performed in a system for measuring and evaluating the vesicle-fusing ATPase activity, the activity being modulated by adding a test compound to an in vitro reaction system using the cotton aphid vesicle-fusing ATPase prepared in Example 7.
As for a measurement of the cotton aphid vesicle-fusing ATPase activity, after the enzymatic reaction of vesicle-fusing ATPase using ATP as a substrate, an amount of ATP that was not hydrolyzed was measured as the amount of luminescence of luciferase using Kinase-Glo™ Luminescent Kinase Assay (manufactured by Promega), according to a method described in the instruction attached to the kit. The vesicle-fusing ATPase activity was calculated from the amount of luminescence.
For measuring the activity, the activity of the aphid vesicle-fusing ATPase was measured when a test compound dissolved in DMSO was contained to a final concentration of 10 μM. In addition, the activity of the aphid vesicle-fusing ATPase was measured when DMSO was contained in place of a test compound. Then, a ratio (%) of a measured value of the activity of the aphid vesicle-fusing ATPase when a test compound dissolved in DMSO was contained, relative to a measured value of the activity of aphid vesicle-fusing ATPase when DMSO was contained in place of the test compound was calculated, and a value obtained by subtracting the calculated value from 100% was adopted as an inhibition degree (%). The results in each test compound are shown in Table 4 in Example 9 together with results of Example 9.
The activity of aphid vesicle-fusing ATPase was measured when a test compound dissolved in DMSO was contained to a final concentration of each concentration of 100 μM, 30 μM, 10 μM, 3 μM, 1 μM, 0.3 μM, 0.1 μM or 0.03 μM. IC50 (μM) was calculated from the result of each concentration at each test compound using a concentration-dependent test analyzing software XL fit (manufactured by idbs). The results are shown in Table 5 in Example 10 together with results of Example 9.

In the next assay the test system is Aphis gossypii. The experiment in a line: Pesticidal activity test, cotton aphid reared on artificial feed containing test compound. Particulars: same manner as Example 9: 50 ppm in artificial feed, 6 days, controlling value of 30% or more = pesticidal activity. The assay is classed as in vivo.
The next assay deals with vesicle-fusing ATPase. To be noted: ATPase inhibitor; Steel et al. 1999, Morgan et al. 1994; cited from earlier work.
[2] abbreviates: test compound in DMSO at final concentration 10 μM, relative to DMSO control.

Where only a bound is given, the exact number is not on record here.

cotton aphid vesicle-fusing ATPase, sequence (A0A9P0IYS6 1-478): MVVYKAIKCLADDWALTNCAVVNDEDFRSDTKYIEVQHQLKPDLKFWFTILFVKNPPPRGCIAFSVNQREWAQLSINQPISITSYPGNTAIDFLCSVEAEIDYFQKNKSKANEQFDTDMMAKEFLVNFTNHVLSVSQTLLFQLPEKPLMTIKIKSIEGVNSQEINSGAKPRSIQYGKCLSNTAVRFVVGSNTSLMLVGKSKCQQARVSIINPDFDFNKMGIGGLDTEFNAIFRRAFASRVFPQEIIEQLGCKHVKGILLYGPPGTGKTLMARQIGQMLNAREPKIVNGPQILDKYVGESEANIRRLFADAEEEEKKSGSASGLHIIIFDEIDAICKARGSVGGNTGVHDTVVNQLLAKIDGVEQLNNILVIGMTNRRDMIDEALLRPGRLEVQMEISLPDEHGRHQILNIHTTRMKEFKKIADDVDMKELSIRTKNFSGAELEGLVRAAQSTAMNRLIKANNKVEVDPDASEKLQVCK

For the compound `Cc1ccc2c(c1)C(=O)C1(O)CCN(c3ccccc3)C1=N2` (racemic) [(±)-Blebbistatin], in assay [1], the IC50 (as a rule, the concentration that gives 50% inhibition) was > 100 µM. Further, the “Determination result of pesticidal activity (Result of Example 10)” value in the assay with Aphis gossypii was “Absence of”.

On to `Clc1ccc(C(c2ccc(Cl)cc2)n2cc[n+](CC(OCc3ccc(Cl)cc3Cl)c3ccc(Cl)cc3Cl)c2)cc1` (centres unmarked) [Calmidazolium Chloride], for which the half-maximal inhibitory concentration (IC50) in assay [1] is 4.7 µM. The “Activity of inhibiting vesicle-fusing ATPase activity (inhibition degree (%) at 10 μm addition)” value in assay [1] (setting [2]) was determined as 80%.

As to `CCN1C(=O)C=CC1=O` [N-ethylmaleimide], the “Activity against vesicle-fusing ATPase” value in the assay on vesicle-fusing ATPase is “show also activity against vesicle-fusing ATPase”.

With `CCCCCCCCCCCCC(=O)N1CCCCC1CNC(=O)[C@@H](N)CCCCN.Cl.Cl` (some centres unmarked) [NPC15437 dihydrochloride], the IC50 in assay [1] was 19 µM. Moreover, the “Activity of inhibiting vesicle-fusing ATPase activity (inhibition degree (%) at 10 μm addition)” value in assay [1] (setting [2]) turned out to be 35%.

Consider `Cc1ccc(C(=O)Nc2ccc(S(=O)(=O)O)c3cc(S(=O)(=O)O)cc(S(=O)(=O)O)c23)cc1NC(=O)c1cccc(NC(=O)Nc2cccc(C(=O)Nc3cc(C(=O)Nc4ccc(S(=O)(=O)O)c5cc(S(=O)(=O)O)cc(S(=O)(=O)O)c45)ccc3C)c2)c1` [Suramin], for which the IC50 in assay [1] is 1.9 µM. In addition, in assay [1] (test compound in DMSO at final concentration 10 μM, relative to DMSO control, read-out: Activity of inhibiting vesicle-fusing ATPase activity (inhibition degree (%) at 10 μm addition)), the inhibition (as a rule, how much of the control response was suppressed) at 10 µM was found to be 100%.

Turning to Hypocrellin B, the 50% inhibitory concentration (IC50) in assay [1] is > 100 µM. In addition, the “Determination result of pesticidal activity (Result of Example 10)” value in the assay on Aphis gossypii is on record as “Absence of”.
